In US11247970B2, “Selective inhibition of gluconeogenic activity” (Dana-Farber Cancer Institute, Inc., priority 2017, dated 2022):
Each block holds one molecule with its values, some of them ahead of it.

Legend:
[1] = test system: primary hepatocytes; assay: Glucose production by primary hepatocytes (glucagon or Ad-PGC-1α); type: cell-based, mouse; conditions: for glucose release to culture medium compared to control: hepatocytes ectopically expressing PGC-1α, overnight treatment, pyruvate/lactate
Protocol: (§1) For measurement of acetylation, gene expression and glucose production SR-18292 ([…]) was added to cells overnight and fresh compound was added the following day for additional 3 h before collecting the cells (for total of ˜18 h treatment). Where insulin and glucagon stimulation were performed, the medium was changed to starvation medium (DMEM, 0.2% BSA, 2 mM sodium pyruvate, and 1% penicillin/streptomycin) with fresh compound for the last 3 h and cells were stimulated with either 100 nM insulin or 200 nM glucagon for an extra 1.5 h. For glucose measurements following PGC-1α over expression cells were incubated for the last 3 h in glucose-free medium (phenol-red/glucose free DMEM, 0.2% BSA, 2 mM sodium pyruvate and 20 mM sodium lactate or 10 mM glycerol in case glycerol was used as substrate). For glucose measurements following glucagon stimulation cells were incubated for the last 4 h in the same glucose-free medium that also contained glucagon (200 nM). The glucose level in the medium was measured using a glucose assay kit from Eton Bioscience Inc. by adding […] of assay buffer to […] of medium followed by 15 min incubation at 37° C. Absorbance was measured at 490 nm.
PGC-1α activates hepatic gluconeogenic gene expression, and an increase in its acetylation status reduces expression of both Pck1 and G6pc genes (Rodgers et al., 2005; Yoon et al., 2001). […] Thus, a high-throughput screen with these 252 compounds at different doses was performed. Briefly, Hepatocytes were treated with forskolin for 1.5 hours to induce the expression of both Pck1 and G6pc genes, which mimics the fasting and PGC-1α-mediated gluconeogenic response. The dose response curves were used to calculate an inhibitory activity of the compounds by determining the difference in Ct values between compound treatment and forskolin control at each dose, and provided an estimated potency of the compounds in suppressing Pck1 and G6pc (FIGS. 4, 34). […] To specifically test the inhibitory activity of the remaining small molecule positive hits on PGC-1α-mediated glucose production, adenoviruses to ectopically express PGC-1α in primary hepatocytes were used. Similar to forskolin, PGC-1α overexpression induces gluconeogenic gene expression and promotes glucose release. Primary hepatocytes were treated with the chosen positive hit compounds that could suppress gluconeogenic gene expression, and the concentration of glucose released to the culture medium was measured.

[2] = molecular target: T1, PGC-1α (Mus musculus, UniProt O70343); assay: AlphaLisa PGC-1α acetylation screen in U-2 OS cells over expressing PGC-1α and GCN5; type: cell-based; design: expressed in transfected cells; host or cells: U-2 OS cells infected with Ad-PGC-1α and Ad-GCN5
T1 sequence (O70343 1-797): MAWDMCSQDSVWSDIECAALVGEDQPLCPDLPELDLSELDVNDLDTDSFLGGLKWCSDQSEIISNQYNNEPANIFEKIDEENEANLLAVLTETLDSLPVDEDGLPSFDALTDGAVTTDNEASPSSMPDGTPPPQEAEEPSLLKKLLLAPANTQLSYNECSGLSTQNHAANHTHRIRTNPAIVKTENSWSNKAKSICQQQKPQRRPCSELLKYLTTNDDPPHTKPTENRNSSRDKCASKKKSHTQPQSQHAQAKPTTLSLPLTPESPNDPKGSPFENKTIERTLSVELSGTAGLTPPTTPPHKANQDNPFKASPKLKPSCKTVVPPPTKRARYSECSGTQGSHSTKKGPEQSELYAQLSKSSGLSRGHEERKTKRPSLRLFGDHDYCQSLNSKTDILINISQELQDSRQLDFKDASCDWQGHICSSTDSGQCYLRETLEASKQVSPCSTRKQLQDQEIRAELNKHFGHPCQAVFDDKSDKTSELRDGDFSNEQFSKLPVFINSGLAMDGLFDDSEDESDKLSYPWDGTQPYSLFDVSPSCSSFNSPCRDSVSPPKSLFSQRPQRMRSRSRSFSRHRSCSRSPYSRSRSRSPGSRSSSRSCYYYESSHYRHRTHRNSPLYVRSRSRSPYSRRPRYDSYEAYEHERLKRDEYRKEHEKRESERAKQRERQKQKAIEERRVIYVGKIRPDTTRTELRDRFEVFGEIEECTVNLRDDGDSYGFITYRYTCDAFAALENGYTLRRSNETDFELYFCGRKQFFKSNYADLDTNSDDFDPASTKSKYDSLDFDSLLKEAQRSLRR
Protocol: U-2 OS cells were thawed and grown in 4 Triple flasks (NUNC) with growth medium. After 48 hours, cells were harvested and seeded in 4 Hyper flasks at a density of 15-20 million cell each. Cells were then grown for 4-5 days until reached confluency. After reaching the desired confluency, medium was changed to assay medium and cells were infected with Ad-PGC-1α and Ad-GCN5 for 4 hours. Following infection, medium was changed to phenol-free medium and cells were incubated overnight. The following day, cells were harvested and seeded on a 384-well plate at 7000 cells/well in […] assay media. Cells were allowed to adhere for 4-8 hours after which 100 nl of compound was added. After overnight incubation with compound, media was aspirated and cells were incubated with lysis buffer for 1 hour at RT. […] Perkin Elmer EnVision plate reader was used for signal detection using Alpha protocol. For each compound, activity score was calculated based on the mean of the normalized and corrected sample activity replicates. […] For each sample the highest valid tested concentration was determined and set as Maximum concentration. […] AC values were calculated using the curve fitting strategies in Genedata Screener Condoseo (7.0.3) and up to the active concentration limit (Maximum concentration) described for each sample. […]

[3] = Preliminary pharmacokinetics, liver concentration; type: in vivo; conditions: ip, 2 h after single dose 30 mg/kg I.P., read-out: compound concentration in the liver
[4] = Bioavailability (data not shown)
[5] = Solubility (data not shown); type: physicochemical
[6] = molecular target: T1, PGC-1α; assay: Western blot of PGC-1α acetylation in U-2 OS cells (analog comparison); type: cell-based; design: expressed in transfected cells; host or cells: U-2 OS cells infected with Ad-PGC-1α and Ad-GCN5; dose or concentration left out as unconfirmed; conditions: Ad-PGC-1α and Ad-GCN5, 18 h
Protocol: U-2 OS cells were infected with Ad-PGC-1α and Ad-GCN5 and treated with the indicated compound for 18 h. PGC-1α was immunoprecipitated using FLAG beads.
For PGC-1α acetylation detection in hepatocytes cells were infected with Ad-PGC-1α and Ad-GCN5. Cells were collected in RIPA buffer (containing protease inhibitor cocktail, 5 mM NaF, 5 mM β-glycerophosphate, 10 mM nicotinamide, 1 mM DTT and 1 μM trichostatin A). FLAG-HA-PGC-1α was immunoprecipitated overnight at 4° C. with FLAG beads (Sigma A2220). For GCN5 interaction with PGC-1α, U-2 OS cells were infected with Ad-PGC-1α. Nuclear extracts were obtained by lysing cell in Buffer A (10 mM HEPES-KOH (pH 7.9), 10 mM KCl, 1.5 mM MgCl2, 0.5 mM DTT, 0.25% IGEPAL (v/v), 5 mM NaF, 5 mM β-glycerophosphate, 5 mM sodium butyrate and 10 mM nicotinamide), supplemented with Protease Inhibitor Cocktail. Once cytoplasmic fractions were separated, nuclear pellets were lysed in Buffer B (20 mM HEPES-KOH (pH 7.9), 125 mM NaCl, 1 mM EDTA, 1 mM DTT, 1% IGEPAL (v/v), 10% glycerol (v/v), 5 mM NaF, 5 mM β-glycerophosphate, 5 mM sodium butyrate and 10 mM nicotinamide), supplemented with Protease Inhibitor Cocktail. FLAG-HA-PGC-1α was immunoprecipitated with FLAG beads overnight at 4° C. All beads were washed at last 3 times in lysis buffer before eluting in sample loading buffer.

[7] = test system: Pck1 and G6pc gene expression; assay: Gluconeogenic gene and protein expression in primary hepatocytes (qPCR, western); type: cell-based, mouse; design: effect on glucagon or PGC-1α-increased Pck1 and G6pc expression, relative to SR-18292: dose or concentration left out as unconfirmed; conditions: 18 h, glucagon or Ad-PGC-1α
Protocol: as §1
siRNA oligos against mouse Ppargc1a were purchased from OriGene (SR420231). Hepatocytes were transfected with a 1:1:1:mixture of 3 unique 27mer siRNA duplexes ([…]) using Lipofectamin RNAiMax (Invitrogen) immediately upon seeding with plating medium. The following morning cells were washed with PBS and medium was changed to maintenance medium. In the afternoon, cells were transfected again and compound treatment started.
Total RNA was extracted from cells or pulverized liver using TRIzol reagent (Ambion, Life Technologies), followed by cDNA preparation from 2 μg of total RNA with a High-Capacity cDNA Reverse Transcription Kit (Applied Biosystems). cDNA products were quantified by real-time PCR using Power SYBR Green PCR Master Mix (Applied Biosystems) on a CFX384 Real-Time PCR System (Bio-Rad). To calculate IC50 from C-80 dose response, curves were fit to the hill equation in a similar manner used to calculate estimated AC50 from the high-throughput qPCR screen. However, unlike the curves from the qPCR high-throughput screen, values of relative repression were used rather than of delta-Ct.

Structure (SMILES): CN(C)C(=N)N=C(N)N [metformin, reference compound]
- concentration able to suppress glucose production ([1]; hepatocytes): 100 to 250 µM

- potency in a confirmatory screen [2]: highest potency
- concentration at 2 h [3]: 2300 nM
Structure (SMILES): Cc1ccc(CN(CC(O)COc2cccc3[nH]cc(C)c23)C(C)(C)C)cc1 (stereo not drawn) [Compound C-80]
- glucose release to culture medium compared to control [1]: next most potent small molecule

- bioavailability [4]: poor
- solubility [5]: poor
Structure (SMILES): Cc1nc(N2CCN(S(=O)(=O)c3ccc(F)cc3)CC2)c2c(-c3cccs3)csc2n1 [Compound C-82]
- glucose release to culture medium compared to control [1]: top small molecule hit suppressing glucose production

Structure (SMILES): Cc1ccc(CN(CC(O)COc2ccccc2)C(C)(C)C)cc1 (stereo not drawn) [SR-19138]
- ability to induce acetylation of PGC-1α compared to SR-18292 [6]: reduced ability to induce acetylation of PGC-1α
- effect on glucagon or PGC-1α-increased Pck1 and G6pc expression, relative to SR-18292 [7]: reduced the inhibitory effect
